Results from patent publication US10426781B2, “Oral formulation and suspension of an oncology drug” (SUN PHARMA GLOBAL FZE, priority 2013, dated 2019).

Assays:
[1] = Solubility of sonidegib phosphate in various media; assay type: physicochemical
Text: Solubility of Sonidegib Phosphate in Various Media

[2] = Surface area of sonidegib drug substance; assay type: physicochemical

solubility ([1]; acetate buffer, pH 4.5, aqueous buffer) | solubility ([1]; phosphate buffer, pH 6.8, aqueous buffer) | solubility ([1]; phosphate buffer, pH 7.4, aqueous buffer) | solubility ([1]; simulated gastric fluid, 0.01N HCl, pH 2.0) | solubility ([1]; simulated gastric fluid, 0.1N HCl, pH 1.0) | solubility ([1]; water) | SMILES | surface area [2]
< 0.2 µg/mL | < 0.2 µg/mL | < 0.2 µg/mL | 18 µg/mL | 4 µg/mL | 7 µg/mL | Cc1c(C(=O)Nc2ccc(N3C[C@@H](C)O[C@@H](C)C3)nc2)cccc1-c1ccc(OC(F)(F)F)cc1 [Sonidegib Phosphate] | –
– | – | – | – | – | – | Cc1c(C(=O)Nc2ccc(N3C[C@@H](C)O[C@@H](C)C3)nc2)cccc1-c1ccc(OC(F)(F)F)cc1 [Sonidegib, N-(6-((2R,6S)-2,6-dimethylmorpholino)pyridin-3-yl)-2-methyl-4′-(trifluoromethoxy)-[1,1′-biphenyl]-3-carboxamide] | Sonidegib has a very high surface area (270 m2/g) and a porous structure that leads to poor water solubility.
